Data reported in patent US6201015A, “Therapeutic method for thrombocytopathy treatment” (priority 1996, dated 2001).
Where two headings read alike, the source gives them in different places.

Experiments:
[1] = tested on: platelets; settings: background; cited from earlier work
[2] = background; cited from earlier work
[3] = cited from earlier work
[4] = cited from earlier work; remark: listed apart in the source
[5] = tested on: platelets (platelet rich plasma); test: Antagonistic Action on Inhibition of Platelet Aggregation (ADP-induced, SQ-29548 present, BPS or PGD2 as inhibitor); assay type: cell-based, human (healthy subject); settings: for IC50: Homo sapiens, Platelet, ADP-induced aggregation, SQ-29548
Description: A blood specimen sampled from a healthy subject was centrifuged to thereby separate platelet rich plasma (PRP) and platelet poor plasma (PPP). To the PRP was added SQ-29548, a TXA2 antagonist, and then Compound 1 was added one minute after, beraprost sodium (BPS), a prostacyclin derivative, or prostaglandin D2 (PGD2) was added to the PRP, and 1 minute thereafter, aggregation was induced by ADP. The 50% inhibitory concentration (IC50) of BPS or PGD2 was then calculated from the results. The experiment was performed on one group composed of three specimens. The results are set forth in Tables 3 and 4 (*: P<0.05, Paired t-test).

[6] = tested on: platelets (platelet rich plasma); test: Action on Platelet Aggregation (3): ADP-induced platelet aggregation in the presence of SQ-29548; assay type: cell-based, human (healthy subject); settings: concentration within the range of 0.1 to 10 μM, Control 38 ± 4.9, *P<0.05 paired t-test
Description: A blood specimen taken from a healthy subject was centrifuged to thereby separate platelet rich plasma (PRP) and platelet poor plasma (PPP). To PRP was added SQ-29548, a TXA2 antagonist, and 1 minute after, platelet aggregation was induced by ADP, and immediately after induction, any of Compounds 2 to 4 having the following structural formulae was added to PRP. The experiment was performed on one group comprising three subjects. The results are set forth in Table 6 (*: P<0.05, Paired t-test).
Compound 2 to 4 were respectively used at a concentration within the range of 0.1 to 10 μM.

[7] = tested on: platelets (platelet rich plasma); test: Action on Platelet Aggregation (1): aggregation induction in PRP in the presence of SQ-29548; assay type: cell-based, human (healthy subject); settings: for Number of Aggregation Induction: PRP with SQ-29548, three samples
Description: A blood specimen sampled from a healthy subject was centrifuged to thereby separate platelet rich plasma (PRP) and platelet poor plasma (PPP). The agent SQ-29548 (refer to Prostaglandins, 1985;29;785), a TXA2 antagonist, was added to PRP, and 1 minute later, a test drug having the following structure (hereinafter referred to as "Compound 1") was added thereto. The experiment was conducted on one group comprising three samples.

[8] = tested on: platelets (platelet rich plasma); test: Action on Platelet Aggregation (2): ADP-induced platelet aggregation in the presence of SQ-29548; assay type: cell-based, human (healthy subject)
Description: A blood specimen sampled from a healthy subject was centrifuged to thereby separate platelet rich plasma (PRP) and platelet poor plasma (PPP). SQ-29548, a TXA2 antagonist, was added to PRP, and 1 minute later, platelet aggregation was induced by ADP, and immediately after induction, Compound 1 was added thereto. The experiment was carried out on one group comprising three samples. The test results are shown in Table 2 (*: P<0.05, Paired t-test).

[9] = tested on: cAMP in the platelets; test: cAMP concentration in platelets stimulated with BPS (EIA kit); assay type: cell-based, human (healthy subject); settings: for cyclic AMP (× basal level): SQ-29548, five cases
Description: A blood specimen taken from a healthy subject was centrifuged to thereby separate platelet rich plasma (PRP). To PRP was added SQ-29548, a TXA2 antagonist, and then Compound 1 was added thereto. After 1 minute, BPS (100 nM) was added to PRP, and then the reaction was stopped by 5% TCA. Thereafter, cAMP in the platelets was extracted and the cAMP concentration was determined with an EIA kit (BIOTRAK cAMP EIA SYSTEM, Amersham). The experiment was carried out on one group composed of five cases. The results are shown in Table 5 (*: P<0.05, Paired t-test).

CCCCC[C@H](O)/C=C/[C@@H]1[C@@H](CC(=O)CCCCC(=O)O)[C@@H](O)C[C@H]1O [Compound 6-oxo-PGF1a, 6-oxo-PGF1a]
known activity (in words) [1]: almost no physiological activity

NC(=O)CC[C@@H]1NC(=O)[C@H](Cc2ccccc2)NC(=O)[C@H](Cc2ccc(O)cc2)NC(=O)CCSSC[C@@H](C(=O)N2CCC[C@H]2C(=O)N[C@H](CCCN=C(N)N)C(=O)NCC(N)=O)NC(=O)[C@H](CC(N)=O)NC1=O [DDAVP, 1-diamino 8-D-arginine vasopressin]
adverse drug reactions (in words) [2]: may induce arterial thrombosis and/or hyponatremia

CCCCC[C@H](O)/C=C/[C@@H]1[C@H]2C/C(=C/CCCC(=O)O)O[C@H]2C[C@H]1O [PGI2, prostaglandin I2]
known activity (in words) [1]: strong antiplatelet activity and telangiectatic activity
stability in neutral aqueous solution (in words) [3]: extremely unstable even in a neutral aqueous solution
stability and duration of activity in vivo (in words) [4]: unstable in vivo and its activity is not long-lasting

CCCCC[C@H](O)/C=C/[C@H]1C(=O)C[C@H](O)[C@@H]1C/C=C\CCCC(=O)O [PGD2, prostaglandin D2]
IC50 ([5]; Compound 1 0 μM, read-out: IC50 of PGD2): 38.8 ± 2.5 nM
IC50 ([5]; in the presence of Compound 1 0.1 μM, read-out: IC50 of PGD2): 71.2 ± 8.2 nM
IC50 ([5]; in the presence of Compound 1 1 μM, *P<0.05, read-out: IC50 of PGD2): 194 ± 28 nM

CCCCC(C)(C)[C@H](O)/C=C/[C@@H]1[C@H]2c3cccc(CCC(=O)O)c3O[C@H]2C[C@H]1O (relative stereo) [Compound 2]
Platelet Aggregation Rate [6]: 45 ± 6.1%

CC(C)(Oc1ccccc1)[C@H](O)/C=C/[C@@H]1[C@H]2c3cccc(CCC(=O)O)c3O[C@H]2C[C@H]1O [Compound 1]
Number of Aggregation Induction ([7]; Compound 1 0.1 μM): 0
Number of Aggregation Induction ([7]; Compound 1 1 μM): 0
Number of Aggregation Induction ([7]; Compound 1 10 μM): 0
induction of platelet aggregation (in words) ([7]; in the presence of SQ-29548, 0.1-10 μM): did not induce platelet aggregation
Platelet Aggregation Rate ([8]; Compound 1 0.1 μM, without Compound 1: 52.0 ± 2.5, *P<0.05 paired t-test): 61.3 ± 2.9%
Platelet Aggregation Rate ([8]; Compound 1 1 μM, without Compound 1: 52.0 ± 2.5, asterisk not given): 70.0 ± 3.0%
effect on aggregation of platelets (in words) ([8]; Compound 1 0.1 and 1 μM): enhanced aggregation of platelets
antagonism of inhibition of platelet aggregation (in words) ([5]; Compound 1 0.1 and 1 μM against BPS or PGD2): physiologically antagonized inhibitory actions of BPS and PGD2 on platelet aggregation
effect on cAMP production (in words) ([9]; BPS 100 nM, Compound 1 0.1 and 1 μM): inhibited cAMP production of BPS in platelets
cyclic AMP (× basal level) ([9]; Compound 1 0.1 μM with BPS 100 nM, *P<0.05): 6.45 ± 1.4 × basal level
cyclic AMP (× basal level) ([9]; Compound 1 1 μM with BPS 100 nM, *P<0.05): 3.98 ± 0.9 × basal level

O=C(O)CCc1cccc2c1OC1CC(O)C(C=CC(O)COc3ccccc3)C21 (centres unmarked) [Compound 3]
Platelet Aggregation Rate [6]: 43 ± 5.3%

CC#CCC(C)[C@H](O)/C=C/[C@@H]1[C@H]2c3cccc(CCCC(=O)O)c3O[C@H]2C[C@H]1O (mixture of isomers) [BPS, beraprost sodium]
IC50 ([5]; Compound 1 0 μM, read-out: IC50 of BPS): 7.99 ± 1.4 nM
IC50 ([5]; in the presence of Compound 1 0.1 μM, read-out: IC50 of BPS): 21.1 ± 4.7 nM
IC50 ([5]; in the presence of Compound 1 1 μM, *P<0.05, read-out: IC50 of BPS): 36.7 ± 7.4 nM
cyclic AMP (× basal level) ([9]; BPS 100 nM, Compound 1 0 μM): 8.46 ± 1.8 × basal level

CC(C)(Oc1ccccc1)[C@H](O)/C=C/[C@@H]1[C@H]2c3cccc(CCC(=O)O)c3O[C@H]2C[C@H]1O (relative stereo) [Compound 4]
Platelet Aggregation Rate [6]: 54 ± 4.1%
